Drawing on EP2112152A1, “Dihydropteridinones as Plk Inhibitors” (GPC Biotech AG, priority 2008, dated 2009), this text covers IC50 for 2 compounds.

The structures appear in SMILES notation. Where two headings read alike, the source gives them in different places.

By IC50 is commonly meant the concentration that gives 50% inhibition.

For experiment [1], the target named is Plk1 (Homo sapiens, UniProt P53350). The experiment can be described thus: Select Screen Kinase Assay (Invitrogen Kinase Profiling Service). It is filed as biochemical. The note with it: tested at Invitrogen; read-out: IC50 values against Plk1 activity. On the procedure: Selected compound of the present invention were tested in the Select Screen™ Kinase Profiling Service (Invitrogen Corporation, Madison, WI 53719, USA) against Plk1, under conditions of non-disclosure, non-dissemination and non-use.
Sequence of Plk1 (P53350 whole entry, species assumed): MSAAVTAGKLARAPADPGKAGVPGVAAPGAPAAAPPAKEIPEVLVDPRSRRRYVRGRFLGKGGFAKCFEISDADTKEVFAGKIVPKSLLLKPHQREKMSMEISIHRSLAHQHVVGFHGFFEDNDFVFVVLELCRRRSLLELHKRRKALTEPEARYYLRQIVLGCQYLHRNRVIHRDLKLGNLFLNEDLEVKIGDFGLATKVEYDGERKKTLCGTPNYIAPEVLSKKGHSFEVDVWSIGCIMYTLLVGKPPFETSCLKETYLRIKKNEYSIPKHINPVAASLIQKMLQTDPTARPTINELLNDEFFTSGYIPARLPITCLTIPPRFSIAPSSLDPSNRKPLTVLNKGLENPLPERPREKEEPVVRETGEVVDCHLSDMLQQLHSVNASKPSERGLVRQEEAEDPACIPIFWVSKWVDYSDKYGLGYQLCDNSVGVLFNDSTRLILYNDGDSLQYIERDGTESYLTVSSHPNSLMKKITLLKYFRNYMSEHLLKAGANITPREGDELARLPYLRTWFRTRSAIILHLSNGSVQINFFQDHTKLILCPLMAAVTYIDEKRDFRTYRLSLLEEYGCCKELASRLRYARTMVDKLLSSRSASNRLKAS
In brief, compounds 1 and 13 (see Table 1) were tested at Invitrogen, and IC50 values against Plk1 activity of about 20 nM were obtained in each case.

Experiment [2] deals with HT-29. Put plainly: SRB cell proliferation assay, HT-29. It is filed as cell-based. The note with it: Homo sapiens. A digest of the protocol:
(§1)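 Cells plated 24 h before compound, then exposed 72 h over a concentration range. TCA-fixed, sulforhodamine B-stained, bound dye read at OD520; IC50 derived from % inhibition of proliferation versus DMSO-treated cells.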

For experiment [3], the system named is IMR-90. Put plainly: SRB cell proliferation assay, IMR-90. It is filed as cell-based. Conditions: Homo sapiens. In outline: as §1
Experiment [4] has as its system A-431. The experiment can be described thus: SRB cell proliferation assay, A-431. It is filed as cell-based. Conditions: Homo sapiens, 18-Cell Line Panel, skin. On the procedure: (§2) Cells were exposed to the test compounds at various concentrations appropriate to determine an IC50 for 72 hours. Cell proliferation was measured using the SRB assay according to Shekan et al (J Natl Cancer Inst (1990) 82, 1107-112) in order to estimate the IC50 values shown in Table 3. Briefly, cells were plated in 96 well dishes 24 hours prior to compound addition at the densities specified in Table 5.1. The assay was terminated with the addition of cold TCA to a final concentration of 10% after growth medium has been removed and the plates were incubated over night at 4°C. The plates were then washed 5 times with water and 100µl of a Sulforhodamine B solution (4%) was added to each well. The plates were then incubated for 10 minutes at room temperature before removal of unbound dye by washing with 1% acetic acid. The bound dye was solubilised with 10 mM Trizma base and the absorbance read at OD520.
(§3) Table 8.1: 18-Cell Line Panel

In experiment [5] the test system is A549. The experiment can be described thus: SRB cell proliferation assay, A549. It is filed as cell-based. Conditions: Homo sapiens, 18-Cell Line Panel, lung. The procedure: as §2, §3
For experiment [6], the system named is NCI-H460. The experiment can be described thus: SRB cell proliferation assay, NCI-H460. It is filed as cell-based. The note with it: Homo sapiens, 18-Cell Line Panel, NSCLC. The procedure:
as §2, §3

Experiment [7] relates to OVCAR-3. The experiment can be described thus: SRB cell proliferation assay, OVCAR-3. It is filed as cell-based. The note with it: Homo sapiens, 18-Cell Line Panel, ovary. On the procedure:
as §2, §3

Experiment [8] relates to PC-3. The experiment can be described thus: SRB cell proliferation assay, PC-3. It is filed as cell-based. The note with it: Homo sapiens, 18-Cell Line Panel, prostate. The procedure: as §2, §3
Experiment [9] concerns A-375. Put plainly: SRB cell proliferation assay, A-375. It is filed as cell-based. Conditions: Homo sapiens, 18-Cell Line Panel, melanoma. The procedure:
as §2, §3

Experiment [10] relates to SK-MEL-5. Put plainly: SRB cell proliferation assay, SK-MEL-5. It is filed as cell-based. Conditions: Homo sapiens, 18-Cell Line Panel, melanoma. On the procedure:
as §2, §3

The test system of experiment [11] is COLO 205. The experiment can be described thus: SRB cell proliferation assay, COLO 205. Conditions: Homo sapiens, 18-Cell Line Panel, colon. It is filed as cell-based. The procedure: as §2, §3
Where [12] appears, read: HT-29, 18-Cell Line Panel, colon, read-out: IC50 HT-29.
The mark [13] stands for this setting: HT-29, 72 h, 72 hours, SRB assay, read-out: CELLULAR IC50 HT-29.
Where [14] appears, read: 18-Cell Line Panel, lung, read-out: IC50 IMR-90.
The mark [15] stands for this setting: 72 hours, SRB assay, slow cycling cell line, read-out: CELLULAR IC50 IMR-90.

In the case of `CCC1C(=O)N(C)c2cnc(Nc3ccc(C(=O)NC4CCN(C)CC4)cc3OC)nc2N1N(C)C` (racemic) [Compound 1, 4-(8-Dimethylamino-7-ethyl-5-methyl-6-oxo-5,6,7,8-tetrahydro-pteridin-2-ylamino)-3-methoxy-N-(1-methyl-piperidin-4-yl)-benzamide], the IC50 is approximately 20 nM in experiment [1]; less than 1000 nM in experiment [2] (setting [12]); less than 1000 nM in experiment [2] (setting [13]); more than 1000 nM in [3] (setting [14]); more than 1000 nM in experiment [3] (setting [15]); less than 1000 nM in experiment [4]. In addition, the IC50 in [5], in experiment [6], in [7], in experiment [8], in [9] and in experiment [10] was less than 1000 nM throughout. The IC50 in [11] was less than 1000 nM.

As for `CCC1C(=O)N(C)c2cnc(Nc3ccc(C(=O)N[C@H]4CC[C@H](N5CCN(CC6CC6)CC5)CC4)cc3OC)nc2N1N(C)C` (relative stereo) [Compound 13, N-[trans-4-(4-Cyclopropylmethyl-piperazin-1-yl)-cyclohexyl]-4-(8-dimethylamino-7-ethyl-5-methyl-6-oxo-5,6,7,8-tetrahydro-pteridin-2-ylamino)-3-methoxy-benzamide], the IC50 in experiment [1] was approximately 20 nM; in experiment [2] (setting [12]), less than 1000 nM; in [2] (setting [13]) it was less than 1000 nM; in experiment [3] (setting [14]), more than 1000 nM; in [3] (setting [15]), more than 1000 nM; in experiment [4], less than 1000 nM. For the same compound, the IC50 in [5], in experiment [6], in experiment [7], in experiment [8], in experiment [9] and in [10] was less than 1000 nM in each case. In [11], this compound showed a half-inhibitory concentration (IC50) of less than 1000 nM.
